Results published in PMC4450297, “Screening Active Compounds from Garcinia Species Native to China Reveals Novel Compounds Targeting the STAT/JAK Signaling Pathway” (BioMed Research International, 2015).

How the values were obtained:
Assay in all cases: Cell panel screen (CellTiter-Glo)
Assay type in all cases: cell-based, human
HEC-1-A = HEC-1-A (Uterus), 20 micromolar, 72 hrs
Summary of the method: (§1)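 Here, cancer cells cultured in medium with 10% FBS are treated for 72 h with each compound at 20 μM final. Viability is measured by ATP-dependent luminescence, and growth inhibition is calculated as a percentage against vehicle-only wells minus cell-free background.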

Colo 205 = conditions: Colo 205, 20 micromolar, 72 hrs
Summary of the method: as §1

HCC1395 = HCC1395 (Breast), 20 micromolar, 72 hrs
Summary of the method: as §1

M059J = M059J (Brain), 20 micromolar, 72 hrs
Summary of the method: as §1

T47D = T47D (Breast), 20 micromolar, 72 hrs
Summary of the method: as §1

HCC1569 = HCC1569 (Breast), 20 micromolar, 72 hrs
Summary of the method: as §1

BT-549 = BT-549 (Breast), 20 micromolar, 72 hrs
Summary of the method: as §1

RL95 = RL95 (Uterus), 20 micromolar, 72 hrs
Summary of the method: as §1

HT-1197 = HT-1197 (Urinary bladder), 20 micromolar, 72 hrs
Summary of the method: as §1

C3A = C3A (Liver), 20 micromolar, 72 hrs
Summary of the method: as §1

ZR-75-30 = ZR-75-30 (Breast), 20 micromolar, 72 hrs
Summary of the method: as §1

BT-474 = BT-474 (Breast), 20 micromolar, 72 hrs
Summary of the method: as §1

HCC1599 = HCC1599 (Breast), 20 micromolar, 72 hrs
Summary of the method: as §1

A704 = A704 (Kidney), 20 micromolar, 72 hrs
Summary of the method: as §1

CCF-STTG1 = CCF-STTG1 (Brain), 20 micromolar, 72 hrs
Summary of the method: as §1

Bel-7402 = Bel-7402 (Liver), 20 micromolar, 72 hrs
Summary of the method: as §1

NCI-H524 = NCI-H524 (Lung), 20 micromolar, 72 hrs
Summary of the method: as §1

J82 = J82 (Urinary bladder), 20 micromolar, 72 hrs
Summary of the method: as §1

NCI-H28 = NCI-H28 (Lung), 20 micromolar, 72 hrs
Summary of the method: as §1

T98G = T98G (Brain), 20 micromolar, 72 hrs
Summary of the method: as §1

HCC1937 = HCC1937 (Breast), 20 micromolar, 72 hrs
Summary of the method: as §1

CW-2 = CW-2 (Colon), 20 micromolar, 72 hrs
Summary of the method: as §1

MSTO-211-H = MSTO-211-H (Lung), 20 micromolar, 72 hrs
Summary of the method: as §1

TCCSUP = TCCSUP (Urinary bladder), 20 micromolar, 72 hrs
Summary of the method: as §1

NCI-H2405 = NCI-H2405 (Lung), 20 micromolar, 72 hrs
Summary of the method: as §1

ChaGo-K-1 = ChaGo-K-1 (Lung), 20 micromolar, 72 hrs
Summary of the method: as §1

SW13 = SW13 (Adrenal gland), 20 micromolar, 72 hrs
Summary of the method: as §1

NCI-H2347 = NCI-H2347 (Lung), 20 micromolar, 72 hrs
Summary of the method: as §1

NCI-H1623 = NCI-H1623 (Lung), 20 micromolar, 72 hrs
Summary of the method: as §1

NCI-H1770 = NCI-H1770 (Lung), 20 micromolar, 72 hrs
Summary of the method: as §1

A498 = A498 (listed under Lung), 20 micromolar, 72 hrs
Summary of the method: as §1

HGC-27 = HGC-27 (Stomach), 20 micromolar, 72 hrs
Summary of the method: as §1

HPAF-II = HPAF-II (Pancreas), 20 micromolar, 72 hrs
Summary of the method: as §1

Panc 03.27 = Panc 03.27 (Pancreas), 20 micromolar, 72 hrs
Summary of the method: as §1

NCI-H1694 = NCI-H1694 (Lung), 20 micromolar, 72 hrs
Summary of the method: as §1

C8166 = C8166 (Leukemia), 20 micromolar, 72 hrs
Summary of the method: as §1

COC(=O)C1OC(Oc2cc(O)c3c(c2)OC(c2ccc(O)c(O)c2)CC3=O)C(O)C(O)C1O (stereo not drawn) [gly-5]
Percent Inhibition (HEC-1-A): -16%
Percent Inhibition (Colo 205): -4%
Percent Inhibition (HCC1395): 11%
Percent Inhibition (M059J): 6%
Percent Inhibition (T47D): 2%
Percent Inhibition (HCC1569): -7%
Percent Inhibition (BT-549): -12%
Percent Inhibition (RL95): 6%
Percent Inhibition (HT-1197): 0%
Percent Inhibition (C3A): -1%
Percent Inhibition (ZR-75-30): 7%
Percent Inhibition (BT-474): -15%
Percent Inhibition (HCC1599): -41%
Percent Inhibition (A704): -7%
Percent Inhibition (CCF-STTG1): 8%
Percent Inhibition (Bel-7402): -8%
Percent Inhibition (NCI-H524): -5%
Percent Inhibition (J82): -8%
Percent Inhibition (NCI-H28): -17%
Percent Inhibition (T98G): 0%
Percent Inhibition (HCC1937): 1%
Percent Inhibition (CW-2): 1%
Percent Inhibition (MSTO-211-H): -6%
Percent Inhibition (TCCSUP): -11%
Percent Inhibition (NCI-H2405): 5%
Percent Inhibition (ChaGo-K-1): -10%
Percent Inhibition (SW13): -6%
Percent Inhibition (NCI-H2347): 1%
Percent Inhibition (NCI-H1623): 7%
Percent Inhibition (NCI-H1770): -6%
Percent Inhibition (A498): -12%
Percent Inhibition (HGC-27): -2%
Percent Inhibition (HPAF-II): -7%
Percent Inhibition (Panc 03.27): 3%
Percent Inhibition (NCI-H1694): -2%
Percent Inhibition (C8166): -5%

Bannaxanthone E [bn-3]
Percent Inhibition (HEC-1-A): 88%
Percent Inhibition (Colo 205): 99%
Percent Inhibition (HCC1395): 98%
Percent Inhibition (M059J): 97%
Percent Inhibition (T47D): 96%
Percent Inhibition (HCC1569): 97%
Percent Inhibition (BT-549): 97%
Percent Inhibition (RL95): 98%
Percent Inhibition (HT-1197): 98%
Percent Inhibition (C3A): 78%
Percent Inhibition (ZR-75-30): 99%
Percent Inhibition (BT-474): 90%
Percent Inhibition (HCC1599): 98%
Percent Inhibition (A704): 98%
Percent Inhibition (CCF-STTG1): 93%
Percent Inhibition (Bel-7402): 98%
Percent Inhibition (NCI-H524): 99%
Percent Inhibition (J82): 98%
Percent Inhibition (NCI-H28): 95%
Percent Inhibition (T98G): 99%
Percent Inhibition (HCC1937): 98%
Percent Inhibition (CW-2): 99%
Percent Inhibition (MSTO-211-H): 98%
Percent Inhibition (TCCSUP): 96%
Percent Inhibition (NCI-H2405): 96%
Percent Inhibition (ChaGo-K-1): 97%
Percent Inhibition (SW13): 98%
Percent Inhibition (NCI-H2347): 89%
Percent Inhibition (NCI-H1623): 95%
Percent Inhibition (NCI-H1770): 98%
Percent Inhibition (A498): 96%
Percent Inhibition (HGC-27): 98%
Percent Inhibition (HPAF-II): 92%
Percent Inhibition (Panc 03.27): 92%
Percent Inhibition (NCI-H1694): 99%
Percent Inhibition (C8166): 98%

O=C1c2c(O)cc(O)cc2OC(c2ccc(O)c(O)c2)C1O (stereo not drawn) [gl-34]
Percent Inhibition (HEC-1-A): -5%
Percent Inhibition (Colo 205): 1%
Percent Inhibition (HCC1395): 16%
Percent Inhibition (M059J): 9%
Percent Inhibition (T47D): -6%
Percent Inhibition (HCC1569): 3%
Percent Inhibition (BT-549): -9%
Percent Inhibition (RL95): 3%
Percent Inhibition (HT-1197): 10%
Percent Inhibition (C3A): -13%
Percent Inhibition (ZR-75-30): 14%
Percent Inhibition (BT-474): -15%
Percent Inhibition (HCC1599): 42%
Percent Inhibition (A704): -13%
Percent Inhibition (CCF-STTG1): 4%
Percent Inhibition (Bel-7402): -9%
Percent Inhibition (NCI-H524): -31%
Percent Inhibition (J82): 3%
Percent Inhibition (NCI-H28): -11%
Percent Inhibition (T98G): 1%
Percent Inhibition (HCC1937): 8%
Percent Inhibition (CW-2): 7%
Percent Inhibition (MSTO-211-H): -9%
Percent Inhibition (TCCSUP): 4%
Percent Inhibition (NCI-H2405): -5%
Percent Inhibition (ChaGo-K-1): -3%
Percent Inhibition (SW13): -13%
Percent Inhibition (NCI-H2347): 2%
Percent Inhibition (NCI-H1623): -7%
Percent Inhibition (NCI-H1770): 0%
Percent Inhibition (A498): 2%
Percent Inhibition (HGC-27): -8%
Percent Inhibition (HPAF-II): 6%
Percent Inhibition (Panc 03.27): 9%
Percent Inhibition (NCI-H1694): 10%
Percent Inhibition (C8166): 7%

O=C1c2c(O)cc(O)cc2OC(c2ccc(O)cc2)C1c1c(O)cc(O)c2c(=O)cc(-c3ccc(O)c(O)c3)oc12 (stereo not drawn) [WZ-4]
Percent Inhibition (HEC-1-A): 10%
Percent Inhibition (Colo 205): -6%
Percent Inhibition (HCC1395): 16%
Percent Inhibition (M059J): -1%
Percent Inhibition (T47D): 6%
Percent Inhibition (HCC1569): -17%
Percent Inhibition (BT-549): -12%
Percent Inhibition (RL95): -2%
Percent Inhibition (HT-1197): -4%
Percent Inhibition (C3A): -2%
Percent Inhibition (ZR-75-30): 8%
Percent Inhibition (BT-474): -5%
Percent Inhibition (HCC1599): 8%
Percent Inhibition (A704): -1%
Percent Inhibition (CCF-STTG1): 0%
Percent Inhibition (Bel-7402): -3%
Percent Inhibition (NCI-H524): -18%
Percent Inhibition (J82): -5%
Percent Inhibition (NCI-H28): 0%
Percent Inhibition (T98G): -2%
Percent Inhibition (HCC1937): 0%
Percent Inhibition (CW-2): 11%
Percent Inhibition (MSTO-211-H): 6%
Percent Inhibition (TCCSUP): 3%
Percent Inhibition (NCI-H2405): -14%
Percent Inhibition (ChaGo-K-1): -14%
Percent Inhibition (SW13): 5%
Percent Inhibition (NCI-H2347): -4%
Percent Inhibition (NCI-H1623): -15%
Percent Inhibition (NCI-H1770): -10%
Percent Inhibition (A498): 4%
Percent Inhibition (HGC-27): -4%
Percent Inhibition (HPAF-II): -10%
Percent Inhibition (Panc 03.27): -16%
Percent Inhibition (NCI-H1694): -10%
Percent Inhibition (C8166): -3%

CC(C)=CCCC1(C)C=Cc2c(O)c3c(c(CC=C(C)C)c2O1)OC12C(=CC4CC1C(C)(C)OC2(CC=C(C)C(=O)O)C4=O)C3=O (mixture of isomers) [GB14]
Percent Inhibition (HEC-1-A): 97%
Percent Inhibition (Colo 205): 98%
Percent Inhibition (HCC1395): 98%
Percent Inhibition (M059J): 97%
Percent Inhibition (T47D): 98%
Percent Inhibition (HCC1569): 98%
Percent Inhibition (BT-549): 98%
Percent Inhibition (RL95): 97%
Percent Inhibition (HT-1197): 98%
Percent Inhibition (C3A): 98%
Percent Inhibition (ZR-75-30): 99%
Percent Inhibition (BT-474): 98%
Percent Inhibition (HCC1599): 98%
Percent Inhibition (A704): 97%
Percent Inhibition (CCF-STTG1): 98%
Percent Inhibition (Bel-7402): 97%
Percent Inhibition (NCI-H524): 98%
Percent Inhibition (J82): 97%
Percent Inhibition (NCI-H28): 97%
Percent Inhibition (T98G): 98%
Percent Inhibition (HCC1937): 98%
Percent Inhibition (CW-2): 98%
Percent Inhibition (MSTO-211-H): 97%
Percent Inhibition (TCCSUP): 98%
Percent Inhibition (NCI-H2405): 97%
Percent Inhibition (ChaGo-K-1): 98%
Percent Inhibition (SW13): 97%
Percent Inhibition (NCI-H2347): 97%
Percent Inhibition (NCI-H1623): 98%
Percent Inhibition (NCI-H1770): 97%
Percent Inhibition (A498): 97%
Percent Inhibition (HGC-27): 98%
Percent Inhibition (HPAF-II): 97%
Percent Inhibition (Panc 03.27): 97%
Percent Inhibition (NCI-H1694): 98%
Percent Inhibition (C8166): 97%
